Like-named read-outs stand apart in the source and are kept apart here.

One may read the IC50 as the midpoint of a concentration-inhibition curve.

Data set [1] deals with T1, human cytochrome P450 family 11B1 (Cyp11B1), 11β-hydroxylase (Homo sapiens, UniProt P15538).
T1 construct: the full-length cDNAs for the proteins were subcloned into the multicloning site of pcDNA3.1 (zeo); expressed in transfected cells
T1 sequence (P15538 25-503): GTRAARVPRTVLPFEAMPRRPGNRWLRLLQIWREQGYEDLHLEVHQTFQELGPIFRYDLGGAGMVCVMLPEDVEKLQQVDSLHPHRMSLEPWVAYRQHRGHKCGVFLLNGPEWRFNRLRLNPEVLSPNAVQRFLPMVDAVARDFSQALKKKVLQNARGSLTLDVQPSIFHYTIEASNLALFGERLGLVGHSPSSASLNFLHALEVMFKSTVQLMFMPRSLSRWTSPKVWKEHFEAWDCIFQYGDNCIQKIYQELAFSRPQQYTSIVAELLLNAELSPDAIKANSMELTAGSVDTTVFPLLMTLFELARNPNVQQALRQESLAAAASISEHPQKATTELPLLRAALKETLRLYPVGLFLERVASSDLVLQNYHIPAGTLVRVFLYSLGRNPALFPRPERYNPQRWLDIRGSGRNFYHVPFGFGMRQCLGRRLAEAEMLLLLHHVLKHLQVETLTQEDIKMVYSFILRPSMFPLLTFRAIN
Nature of the data set: Cyp11B1 (11β-hydroxylase) inhibition in stably transfected Y1-Cyp11B1 cells, substrate 11-deoxycortisol (RSS). Type of data set: cell-based. The source says: (§1) Plasmid constructs and transfection: To induce expression of human cytochrome P450 family 11B1 (Cyp11B1) and Cyp11B2 enzymes in Y1 cells, the full-length cDNAs for the proteins were subcloned into the multicloning site of pcDNA3.1 (zeo) (Invitrogen, Eggenstein, Germany). The cDNA fragments were isolated by PCR and digested by EcoRI. The individual fragments were ligated into the linearized vectors digested by EcoRI. Human Cyp11B1 and Cyp11B2 enzymes were expressed in Y1 cells using liposome/lipid-mediated DNA transfection. Purified plasmid DNA was mixed with Lipofectamine (Invitrogen) transfection reagents according to the manufacturer's protocol. To generate a stable Y1-Cyp11B1 and Y1-Cyp11B2 cell line, Y1 cells were transfected with the pcDNA3.1 (zeo)-Cyp11B1 and pcDNA3.1 (zeo)-Cyp11B2 vector, respectively.
(§2) Transfected cells were selected with 1000 μg/ml zeocin (Invitrogen). To screen colonies, Western blotting and real-time PCR were used to determine the level of Cyp11B1 and Cyp11B2 expression. Colonies with the highest Cyp11B expression were further tested for their ability to synthesize cortisol or aldosterone from deoxycortisol (RSS) and 11-deoxycorticosterone (DOC), respectively. Experimental protocols were standardized regarding substrate concentrations and incubation periods.
In vitro evaluation of specificity: To evaluate Cyp11B1 and Cyp11B2 inhibition by the inventive compounds, Y1-Cyp11B1 and Y1-Cyp11B2 cells were subcultured on six-well plates (0.5×10^6 cells per well) in 2 ml culture medium.
The enzyme reaction was started after 24 hours by the addition of 1 ml culture medium containing either 11-deoxycortisol (RSS) or 11-deoxycorticosterone (DOC) as substrate and the corresponding inhibitor. RSS and DOC were dissolved in ethanol to a final test concentration of 1 μM. For determination of IC50 values, the inhibitors were added to the culture medium at concentrations between 0.6 nM and 60 μM and incubated for 48 h. Y1-Cyp11B1 and Y1-Cyp11B2 cells, which were treated in the same way but without inhibitors, served as controls. As further controls, untransfected Y1 cells were also incubated with RSS and DOC, respectively. Both RSS and DOC were obtained from Sigma (Deisenhofen, Germany).

Data set [2] addresses T2, human Cyp11B2, aldosterone synthase (Homo sapiens, UniProt P19099).
T2 construct: the full-length cDNAs for the proteins were subcloned into the multicloning site of pcDNA3.1 (zeo); expressed in transfected cells
T2 sequence (P19099 25-503): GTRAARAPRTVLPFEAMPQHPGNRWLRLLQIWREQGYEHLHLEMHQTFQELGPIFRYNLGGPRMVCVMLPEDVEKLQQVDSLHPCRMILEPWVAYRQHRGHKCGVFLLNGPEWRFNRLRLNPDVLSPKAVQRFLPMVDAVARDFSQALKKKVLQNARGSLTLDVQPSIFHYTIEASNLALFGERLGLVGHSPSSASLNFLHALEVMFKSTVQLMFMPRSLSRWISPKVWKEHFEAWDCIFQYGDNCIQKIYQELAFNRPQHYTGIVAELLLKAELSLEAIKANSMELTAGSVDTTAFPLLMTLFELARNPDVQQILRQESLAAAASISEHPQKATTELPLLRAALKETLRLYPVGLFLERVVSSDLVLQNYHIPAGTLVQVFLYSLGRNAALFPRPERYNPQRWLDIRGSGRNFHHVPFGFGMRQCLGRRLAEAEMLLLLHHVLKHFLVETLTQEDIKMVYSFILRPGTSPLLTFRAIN
Put plainly: Cyp11B2 (aldosterone synthase) inhibition in stably transfected Y1-Cyp11B2 cells, substrate 11-deoxycorticosterone (DOC). Type of data set: cell-based.
Excerpt: as §1, §2
The enzyme reaction was started after 24 hours by the addition of 1 ml culture medium containing either 11-deoxycortisol (RSS) or 11-deoxycorticosterone (DOC) as substrate and the corresponding inhibitor. RSS and DOC were dissolved in ethanol to a final test concentration of 1 μM. […] Y1-Cyp11B1 and Y1-Cyp11B2 cells, which were treated in the same way but without inhibitors, served as controls. As further controls, untransfected Y1 cells were also incubated with RSS and DOC, respectively. Both RSS and DOC were obtained from Sigma (Deisenhofen, Germany).

Data set [3] has as its system adrenal glands. Put plainly: Uptake in adrenal glands in mice, ex vivo gamma counting. Particulars: male CD-1 mice; for uptake in adrenal glands compared to IMTO: i.v. 1 μCi (37 kBq), 15, 30, 120 and 240 min, 2a especially after 120 and 240 minutes, 2e at any time point. The procedure: The uptake of IMTO, (R)-1-[1-(4-iodophenyl)ethyl]-1H-imidazole-5-carboxylic acid ethyl-methyl amide (compound 2a) and (R)-1-[1-(4-iodophenyl)ethyl]-1H-imidazole-5-carboxylic acid azetidinylamide (compound 2e) in adrenal glands in mice in ex vivo experiments has been examined as follows. Male CD-1 mice were injected i.v. with 1 μCi (37 kBq) IMTO, (R)-1-[1-(4-[^125I]iodophenyl)ethyl]-1H-imidazole-5-carboxylic acid ethyl-methyl amide or (R)-1-[1-(4-iodophenyl)ethyl]-1H-imidazole-5-carboxylic acid azetidinylamide (compound 2e). At predefined time points (15 min, 30 min, 120 min, and 240 min) mice were killed (n≧6 per time point) and adrenals were excised and weighed. Radioactivity was measured using a gamma-counter.

Data set [4] deals with adrenal gland and other organs. Put plainly: Biodistribution in mice. Type of data set: in vivo. Particulars: male CD-1 mice, i.v. 37 kBq, 15 min to 4 h. The procedure:
The biodistribution of IMTO, (R)-1-[1-(4-iodophenyl)ethyl]-1H-imidazole-5-carboxylic acid ethyl-methyl amide (compound 2a) and (R)-1-[1-(4-iodophenyl)ethyl]-1H-imidazole-5-carboxylic acid azetidinylamide (compound 2e) has been assessed in mice as follows. Male CD-1 mice were injected iv with 1 μCi (37 kBq) (R)-1-[1-(4-[^125I]iodophenyl)ethyl]-1H-imidazole-5-carboxylic acid ethyl-methyl amide. At predefined time points (15 min, 30 min, 2 h, and 4 h), mice were killed (n 6 per time point). Blood was collected, and heart, lung, liver, intestine, stomach, spleen, kidneys, adrenals, testes, brain and other organs were excised and weighed. Radioactivity was measured using a gamma-counter.

The target of data set [5] is T3, Cyp11B1 (Homo sapiens, UniProt P15538).
T3 sequence (P15538 25-503): T1 sequence (P15538 25-503)
Particulars: in contrast to IMTO; cited from earlier work.

For data set [6], the target named is T4, CYP11B2 (Homo sapiens, UniProt P19099).
T4 sequence (P19099 25-503): T2 sequence (P19099 25-503)
Particulars: in contrast to IMTO; cited from earlier work.

For data set [7], the system named is adrenocortical carcinoma. Particulars: advanced disease, retrospective analyses; cited from earlier work.
Data set [8] can be described thus: Metabolization of IMTO in the blood of patients. The conditions noted are these: iodometomidate acid identified after few minutes as product of enzymatic hydrolysis.
The mark [9] stands for this setting: Y1-Cyp11B1 cells, 1 μM RSS, 48 h incubation, read-out: IC50 11β-hydroxylase.
Setting [10] is: Y1-Cyp11B2 cells, 1 μM DOC, 48 h incubation, read-out: IC50 aldosterone synthase.

Consider `C[C@H](c1ccc(I)cc1)n1cncc1C(=O)NCCO` [2k], for which the IC50 in data set [1] came out at 336 ± 398 nM; in data set [2], 221 ± 168 nM.
As to `C[C@H](c1ccc(I)cc1)n1cncc1C(=O)N(C)C` [2i], the IC50 in data set [1] is more than 1000 nM; in data set [2] it was 15.7 nM.
As to `C[C@H](c1ccc(I)cc1)n1cncc1C(=O)N1CCC1` [2e, (R)-1-[1-(4-Iodophenyl)ethyl]-1H-imidazole-5-carboxylic acid azetidinylamide], the IC50 was found to be 3.16 ± 0.14 nM in data set [1] and 1.22 ± 0.08 nM in data set [2]. In addition, in data set [3], the “uptake in adrenal glands compared to IMTO” value was “greatly increased”. Besides, the “factor of increase of adrenal uptake compared to IMTO” value in data set [3] (i.v., after 240 minutes) is “about 10”. Further, the “biodistribution: organ of predominant uptake” value in data set [4] is “predominately in adrenal gland”.
As to `C[C@H](c1ccc(I)cc1)n1cncc1C(=O)O` [iodometomidate acid, (R)-1-[1-(4-Iodophenyl)ethyl]-1H-imidazole-5-carboxylic acid], the “affinity to Cyp11B1” value in data set [5] is “little or no affinity”. Besides, the “affinity to CYP11B2” value in data set [6] is recorded as “little or no affinity”.
On to `C[C@H](c1ccc(I)cc1)n1cncc1C(=O)N1CCCCC1` [2g], for which the IC50 in data set [1] (setting [9]) worked out at 11.7 nM; in data set [2] (setting [10]) it was 5.5 ± 2.2 nM.
For `CCCN(CC)C(=O)c1cncn1[C@H](C)c1ccc(I)cc1` [2n], the IC50 in data set [1] came out at 1320 nM; in data set [2], 390 ± 170 nM.
In the same order, the values of `CCCN(C)C(=O)c1cncn1[C@H](C)c1ccc(I)cc1` [2l] are 74.7 nM and 3.5 ± 7.5 nM.
As for `Clc1ccc(C(c2ccccc2Cl)C(Cl)Cl)cc1` (centres unmarked) [mitotane], the overall response rate in data set [7] is listed as 26%.
As to `CCN(C)C(=O)c1cncn1[C@H](C)c1ccc(I)cc1` [2a, (R)-1-[1-(4-Iodophenyl)ethyl]-1H-imidazole-5-carboxylic acid ethylmethylamide], the IC50 in data set [1] stood at 3.9 ± 0.6 nM; in data set [2], 4.2 ± 0.37 nM. Also, the “uptake in adrenal glands compared to IMTO” value in data set [3] is recorded as “increased”. In addition, the “biodistribution: organ of predominant uptake” value in data set [4] is recorded as “predominately in adrenal gland”.
On to `CCN(CC)C(=O)c1cncn1[C@H](C)c1ccc(I)cc1` [2b], for which the IC50 was found to be 36.6 nM in data set [1] and 10.9 ± 2.02 nM in data set [2].
For `CC(C)N(C)C(=O)c1cncn1[C@H](C)c1ccc(I)cc1` [2m], in that order: 78.2 nM and 147 ± 61.9 nM.
As to `C[C@H](c1ccc(I)cc1)n1cncc1C(=O)N1CCOCC1` [2h], the figures for the IC50 in data set [1] (setting [9]) and in data set [2] (setting [10]) were 805 nM and 182 nM, respectively.
As for `C[C@H](c1ccc(I)cc1)n1cncc1C(N)=O` [2j], the IC50 in data set [1] was 329 ± 310 nM; in data set [2], 1410 ± 2070 nM.
`COC(=O)c1cncn1[C@H](C)c1ccc(I)cc1` [iodometomidate (IMTO), 4-Iodometomidate, reference compound]: the results for the IC50 in data set [1] and in data set [2] were 2.6 ± 1.1 nM and 2 ± 2.3 nM, respectively. Besides, the “biological half-life in the blood of patients” value in data set [8] is given as “very limited”.
Turning to `Cc1nnc(-c2cncn2[C@H](C)c2ccc(I)cc2)o1` [6a], the IC50 in data set [1] (setting [9]) is 10.6 ± 9.2 nM; in data set [2] (setting [10]) it was 90.1 nM.

The values are drawn from patent US9814789B2, “Radiopharmaceutical products for diagnosis and therapy of adrenal carcinoma” (JULIUS-MAXIMILIANS-UNIVERSITÄT WÜRZBURG, priority 2012, dated 2017).
